# Experimental data taken from article PMC10101059, “Rational Design of Stapled Antimicrobial Peptides to Enhance Stability and In Vivo Potency against Polymicrobial Sepsis” (Microbiology Spectrum, 2023).
# Where two headings read alike, the source gives them in different places. Bridge positions count the residues as written; N and C are the ends. Square brackets hold non-standard residues; d marks the D form. Peptide text beside a SMILES is read from it. R5 = C=CCCC[C@@](C)(N)C(=O)O
# Assays:
# A. baumannii [1] = experiment: SEM and TEM analysis; format: cell-based, Acinetobacter baumannii; conditions: 1× MIC
# Procedure: The treated suspension was washed twice with 10 mM PBS (pH 7.4) followed by treatment with 4% glutaraldehyde. Next, the suspension was incubated for 30 min at 4°C. Following the incubation, the treated suspension was centrifuged (5,000 × g, 10 min), and the pellet was placed on a glass slide and allowed to attach for 30 min. The glass slide was then subjected to gradient ethanol washing from 0% to 100% ethanol. Finally, the glass slides were dried and coated with gold for imaging ([55]). For TEM, glutaraldehyde samples were cryoimmobilized and subjected to TEM imaging ([58], [59]).
# NDM1 K. pneumoniae = experiment: microbe, parasite or virus in culture; format: cell-based, Klebsiella pneumoniae; conditions: for TP4-3 and meropenem combined MIC: MIC of each agent in combination; for MIC: read-out: Single drug treatment MIC
# Acinetobacter baumannii = experiment: microbe, parasite or virus in culture; format: cell-based; conditions: for MBC: read-out: MBC; for MIC: read-out: MIC
# Procedure: The antimicrobial assay was performed according to a modified National Committee for Clinical Laboratory Standards (NCCLS) protocol ([41], [42]). Briefly, 5 × 10^5 CFU/mL bacterial cells were treated with various peptide concentrations and incubated at 37 ± 2°C for 16 to 20 h. The lowest concentration with clear wells was recorded as the MIC for each test molecule. The clear wells were further plated in Mueller-Hinton agar (MHA) plates, followed by incubation overnight at 37 ± 2°C. After plating, the lowest concentration at which no growth was observed was recorded as the MBC. For the serum sensitivity assay, the antimicrobial activity of the peptides was tested in medium containing 50% human serum ([43], [44]). The antimicrobial assay was performed in the presence of physiological ions and glucose. The test media were supplemented with MgCl2 (1 mM), CaCl2 (2 mM), NaCl (150 mM), KCl (4.5 mM), NH4Cl (6 μM) ([45], [46]), or glucose (0.2%) ([47]), followed by routine antimicrobial assay as described previously. For the pH sensitivity assay, the antimicrobial assay was performed in media adjusted to pH values ranging from 4 to 12. To estimate the effects of temperature on antimicrobial activity, the peptide was incubated for 1 h at temperatures ranging from 40 to 100°C ([48]), followed by the antimicrobial assay as described above.
# Staphylococcus aureus = format: cell-based
# Procedure: The antimicrobial assay was performed according to a modified National Committee for Clinical Laboratory Standards (NCCLS) protocol ([41], [42]). Briefly, 5 × 10^5 CFU/mL bacterial cells were treated with various peptide concentrations and incubated at 37 ± 2°C for 16 to 20 h. The lowest concentration with clear wells was recorded as the MIC for each test molecule. The clear wells were further plated in Mueller-Hinton agar (MHA) plates, followed by incubation overnight at 37 ± 2°C. After plating, the lowest concentration at which no growth was observed was recorded as the MBC. For the serum sensitivity assay, the antimicrobial activity of the peptides was tested in medium containing 50% human serum ([43], [44]).
# A. baumannii [2] = experiment: NPN membrane permeabilization assay; format: cell-based, Acinetobacter baumannii; conditions: 25 μM, 10^8 CFU/mL
# Procedure: Mid-log-phase bacterial cells (A. baumannii) were resuspended in 10 mM PBS (pH 7.4) to a density of 10^8 CFU/mL. The cell suspension was supplemented with 25 mM glucose followed by 15 min incubation at 37°C. After the incubation, N-phenyl-1-naphthylamine dye was added to a final concentration of 10 μM. Next, 90 μL of bacterial cells was transferred to a 96-well black plate, and fluorescence was recorded for 40 min (excitation/emission: 350/420 nm). […] After this treatment, fluorescence was recorded for an additional 20 min ([53]). Data are presented as fluorescence values as a function of time. Permeabilization of blank- and test compound-treated cells was compared. For the PI membrane permeabilization assay, 10^8 bacterial cells (A. baumannii) were resuspended in MHB containing 20 μg/mL PI. […] Fluorescence was read (excitation/emission: 584/620 nm). Fluorescence values of blank- and compound-treated cells were graphed as a function of time ([54], [55]).
# A. baumannii [3] = experiment: DiBAC4(3) membrane depolarization assay; format: cell-based, Acinetobacter baumannii; conditions: compared to the blank control
# Procedure: Mid-log-phase A. baumannii bacterial cells were suspended in 10 mM PBS (pH 7.4) at a density of 10^8 CFU/mL. The cell suspension was then supplemented with 25 mM glucose, followed by 15 min incubation at 37°C. Then, the cell suspension was mixed with 500 nM DiBAC4(3) and incubated for 50 min. After incubation, 90 μL of the cell suspension was transferred to a 96-well plate, and fluorescence was recorded (excitation/emission: 480/520 nm) until the signal stabilized (~40 min). […] Data for blank- and compound-treated groups were compared by plotting fluorescence as function of time ([56]).
# female C57BL/6 mice = experiment: In vivo toxicity
# Procedure: The in vivo toxicity of TP4-3 was assessed in female C57BL/6 mice (BioLasco, Ilan, Taiwan) upon intravenous administration of TP4-3 (9, 45, and 60 mg/kg). […] All animals were monitored for 7 days. The number of dead animals and animal body weights were measured every 24 h. Seven days after the drug administration, blood samples were collected, and the animals were euthanized. ALT (GPT), AST (GOT), CRE, and BUN were analyzed using a dry-chemistry analyzer (Fujifilm DRI-CHEM 4000i) and commercially available kits (Fujifilm Corp., Tokyo, Japan) ([23], [54]). All animal experiments were approved by the institutional ethical committee (IACUC, Academia Sinica; ID no. 2021-12-1577 and 2021-12-1771).
# A. baumannii [4] = experiment: Serial passage (induced resistance) assay; format: cell-based, Acinetobacter baumannii; conditions: after serial passage for 15 cycles
# Procedure: The experimental procedure was performed according to the MIC protocol for A. baumannii described above. Subsequently, bacterial samples from sub-MIC wells were passaged, and the MIC was estimated again. This process was repeated for 15 cycles, and the change in MIC over […] was reported ([23]).
# Salmonella enterica = experiment: microbe, parasite or virus in culture; format: cell-based; conditions: Salmonella enterica; MHB medium
# In short: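 Inoculum 5 × 10^5 CFU/mL; peptide dilution series; 37 ± 2°C, 16–20 h; MIC = first clear well. Clear wells onto MHA, overnight 37 ± 2°C; MBC = no growth. Serum assay: 50% human serum in medium.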
# [5] = 24 h pre-incubation in 50% human serum
# [6] = Acinetobacter baumannii, 1 h, agent pre-exposed to 40°C for 1 h
# [7] = Acinetobacter baumannii, 1 h, agent pre-exposed to 60°C for 1 h
# [8] = Acinetobacter baumannii, 1 h, agent pre-exposed to 80°C for 1 h
# [9] = Acinetobacter baumannii, preincubation in 50% human serum 2 h
# [10] = Acinetobacter baumannii, preincubation in 50% human serum 6 h
# [11] = Acinetobacter baumannii, preincubation in 50% human serum 12 h
# [12] = Acinetobacter baumannii, preincubation in 50% human serum 24 h
compound,measurement,setting,value
"CC[C@H](C)[C@H](NC(=O)[C@@H](NC(=O)[C@@H](N)Cc1ccccc1)[C@@H](C)CC)C(=O)N[C@]1(C)CCCC=CCCC[C@](C)(C(=O)NCC(=O)N[C@@H](CC(C)C)C(=O)N[C@@H](Cc2ccccc2)C(=O)N[C@@H](CCCCN)C(=O)N[C@@H](CCCCN)C(=O)N[C@@H](CCCCN)C(=O)N[C@@H](C)C(=O)NCC(=O)N[C@@H](C)C(=O)N[C@]2(C)CCCC=CCCC[C@](C)(C(=O)N[C@H](C(=O)N[C@@H](CCCCN)C(=O)N[C@@H](CCCCN)C(=O)O)[C@@H](C)CC)NC(=O)[C@H](CCCCN)NC(=O)[C@H](CCCCN)NC(=O)[C@H](CCCCN)NC2=O)NC(=O)[C@H](CO)NC(=O)[C@H](CCCCN)NC(=O)[C@H](CCCCN)NC1=O [TP4-3] (H-FII[R5]KKS[R5]GLFKKKAGA[R5]KKK[R5]IKK-OH; staple 4-8, 18-22; N-terminus and C-terminus assumed)","bacterial membrane architecture (SEM, TEM)",A. baumannii [1],significant membrane deformation
same,TP4-3 and meropenem combined MIC,NDM1 K. pneumoniae; TP4-3 and D,6.25 µM
same,TP4-3 and meropenem combined MIC,NDM1 K. pneumoniae; TP4-3 and M,6.25 µM
same,MIC,NDM1 K. pneumoniae; NDM1,25 µM
same,reduction of activity,Acinetobacter baumannii; 12 h pretreatment in 50% human serum,2 fold
same,reduction of activity,Acinetobacter baumannii; [5],4 fold
same,reduction of activity (MBC),Acinetobacter baumannii; in pH 6,4 fold
same,lower bactericidal potency,Acinetobacter baumannii; media supplemented with CaCl2,≤ 8 fold
same,lower bactericidal potency,Acinetobacter baumannii; media supplemented with MgCl2,up to 4 fold
same,lowered bactericidal potency (MBC),"Acinetobacter baumannii; media supplemented with NaCl, KCl, or NH4Cl vs non-supplemented medium",up to 2 fold
same,MBC,Acinetobacter baumannii; pH 6,12.5 µM
same,MIC,Acinetobacter baumannii; pH 6,12.5 µM
same,MBC,Acinetobacter baumannii; pH 7.4,3.13 µM
same,MIC,Acinetobacter baumannii; pH 7.4,3.13 µM
same,MBC,Acinetobacter baumannii; pH 8,3.13 µM
same,MIC,Acinetobacter baumannii; pH 8,3.13 µM
same,MBC,Acinetobacter baumannii; pH 10,3.13 µM
same,MIC,Acinetobacter baumannii; pH 10,0.78 µM
same,MBC,Staphylococcus aureus,>25 µM
same,MIC,Staphylococcus aureus,>25 µM
same,NPN fluorescence signal vs controls,A. baumannii [2],~4 fold
same,DiBAC4(3) fluorescence signal (membrane depolarization),A. baumannii [3],substantial rise in the fluorescence signal
same,time to death after treatment,female C57BL/6 mice; 60 mg/kg i.v.,≤ 10 min
same,body weight,"female C57BL/6 mice; i.v. 9 or 45 mg/kg, 7 days",No significant changes in body weight
same,survival,"female C57BL/6 mice; i.v. doses of 9 or 45 mg/kg, 7 days",All treated animals survived
same,"kidney (BUN, CRE) and liver (GOT, GPT) function markers","female C57BL/6 mice; i.v., TP4-3 up to 45 mg/kg, meropenem 10 mg/kg, day 7",no obvious effects
same,net increase in the MIC,A. baumannii [4],5 fold
C[C@@H](O)[C@H]1C(=O)N2C(C(=O)O)=C(S[C@@H]3CN[C@H](C(=O)N(C)C)C3)[C@H](C)[C@H]12 [Meropenem],MIC,NDM1 K. pneumoniae; Klebsiella pneumoniae,400 µM
same,TP4-3 and meropenem combined MIC,NDM1 K. pneumoniae; TP4-3 and M,200 µM
same,reduction of activity,Acinetobacter baumannii; [5],2 fold
same,MBC,Acinetobacter baumannii; [6],6.25 µM
same,MIC,Acinetobacter baumannii; [6],6.25 µM
same,MBC,Acinetobacter baumannii; [7],6.25 µM
same,MIC,Acinetobacter baumannii; [7],6.25 µM
same,MBC,Acinetobacter baumannii; [8],12.5 µM
same,MIC,Acinetobacter baumannii; [8],12.5 µM
same,MBC,"Acinetobacter baumannii; Acinetobacter baumannii, 1 h, agent pre-exposed to 100°C for 1 h",> 25 µM
same,MBC,Acinetobacter baumannii; [9],6.25 to 12.5 µM
same,MIC,Acinetobacter baumannii; [9],6.25 µM
same,MBC,Acinetobacter baumannii; [10],6.25 to 12.5 µM
same,MIC,Acinetobacter baumannii; [10],6.25 µM
same,MBC,Acinetobacter baumannii; [11],12.5 µM
same,MIC,Acinetobacter baumannii; [11],6.25 µM
same,MBC,Acinetobacter baumannii; [12],25 µM
same,MIC,Acinetobacter baumannii; [12],12.5 µM
same,MIC,"Acinetobacter baumannii; Acinetobacter baumannii, agent pre-exposed to 100°C for 1 h",> 25 µM
same,MBC,Salmonella enterica,6.25 µM
same,MIC,Salmonella enterica,3.13 to 6.25 µM
same,net increase in the MIC,A. baumannii [4],53 fold
